Structures can show the parent of a compound that is named as a salt.

For 36 compounds, melting point results are on record in patent publication US7781590B2, “Piperidinylalkylcarbamate derivatives, methods for their preparation and the therapeutic use thereof as fatty acid amido hydrolase enzyme inhibitors” (Sanofi-Aventis, priority 2004, dated 2010).

The term melting point denotes the temperature, or range, at which the solid turns liquid. `CNC(=O)COC(=O)NCCC1CCN(Cc2cc(Cl)ccc2Cl)CC1` [Compound 19, 2-(methylamino)-2-oxoethyl 2-[1-(2,5-dichlorobenzyl)piperidin-4-yl]ethylcarbamate] had a melting point of 125 to 127 °C.
The result for `CNC(=O)COC(=O)NCCC1CCN(C(C)c2cccc(OC(F)(F)F)c2)CC1` (stereo not drawn) (as salt: HCl) [Compound 110, 2-(methylamino)-2-oxoethyl 2-(1-{1-[3-(trifluoromethoxy)phenyl]ethyl}piperidin-4-yl)ethylcarbamate] reads 169 to 171 °C; that for `CNC(=O)COC(=O)NCCC1CCN(CCc2ccc(F)cc2)CC1` [Compound 58, 2-(methylamino)-2-oxoethyl 2-{1-[2-(4-fluorophenyl)ethyl]piperidin-4-yl}ethylcarbamate], 122 to 124 °C; that for `CNC(=O)COC(=O)NCCC1CCN(Cc2cc(Cl)cc(Cl)c2)CC1` [Compound 21, 2-(methylamino)-2-oxoethyl 2-[1-(3,5-dichlorobenzyl)piperidin-4-yl]ethylcarbamate], 124 to 126 °C.
Under `CNC(=O)COC(=O)NCCC1CCN(Cc2ncc(-c3ccc(Cl)cc3)o2)CC1` [Compound 105, 2-(methylamino)-2-oxoethyl 2-(1-{[5-(4-chlorophenyl)-1,3-oxazol-2-yl]methyl}piperidin-4-yl)ethylcarbamate] stands 124 to 126 °C; under `CNC(=O)COC(=O)NCCC1CCN(Cc2cccc(OC(C)(C)C)c2)CC1` [Compound 122, 2-(methylamino)-2-oxoethyl 2-[1-(3-tert-butoxybenzyl)piperidin-4-yl]ethylcarbamate], 66 to 70 °C; under `CNC(=O)COC(=O)NCCC1CCN(Cc2ccc(OC(F)(F)F)cc2)CC1` [Compound 16, 2-(methylamino)-2-oxoethyl 2-{1-[4-(trifluoromethoxy)benzyl]piperidin-4-yl}ethylcarbamate], 109 to 111 °C.
Regarding `CNC(=O)COC(=O)NCCC1CCN(Cc2cccc3ccccc23)CC1` [Compound 29, 2-(methylamino)-2-oxoethyl 2-[1-(naphthalen-1-ylmethyl)piperidin-4-yl]ethylcarbamate], the melting point lay within 86 to 88 °C.
The result for `CNC(=O)COC(=O)NCCC1CCN(Cc2ccc3ccccc3c2)CC1` [Compound 30, 2-(methylamino)-2-oxoethyl 2-[1-(naphthalen-2-ylmethyl)piperidin-4-yl]ethylcarbamate] reads 87 to 93 °C; that for `CNC(=O)COC(=O)NCCC1CCN(Cc2ccc(Cl)c(Cl)c2)CC1` [Compound 20, 2-(methylamino)-2-oxoethyl 2-{1-[(3,4-dichlorophenyl)methyl]piperidin-4-yl}ethylcarbamate], 101 to 105 °C.
The result for `CNC(=O)COC(=O)NCCC1CCN(CCCc2ccc(OC)cc2)CC1` (as salt: HCl) [Compound 64, 2-(methylamino)-2-oxoethyl 2-(1-{3-[4-(methyloxy)phenyl]propyl}piperidin-4-yl)ethylcarbamate] reads 118 to 120 °C.
`CNC(=O)COC(=O)NCCC1CCN(CCc2c(F)cccc2Cl)CC1` [Compound 60, 2-(methylamino)-2-oxoethyl 2-{1-[2-(2-chloro-6-fluorophenyl)ethyl]piperidin-4-yl}ethylcarbamate] came in with a melting point of 88 to 90 °C.
On to `CNC(=O)COC(=O)NCCC1CCN(CCc2cc(-c3ccc(Cl)cc3)no2)CC1` [Compound 120, 2-(methylamino)-2-oxoethyl 2-(1-{2-[3-(4-chlorophenyl)isoxazol-5-yl]ethyl}piperidin-4-yl)ethylcarbamate], for which the melting point lay in the range of 135 to 137 °C.
`CNC(=O)COC(=O)NC1CCN(CCOc2ccc(Cl)cc2Cl)CC1` [Compound 68]: the melting point lay in the range of 115 to 119 °C.
The result for `CNC(=O)COC(=O)NCCC1CCN(Cc2ccc(F)c(Cl)c2)CC1` [Compound 101, 2-(methylamino)-2-oxoethyl 2-[1-(3-chloro-4-fluorobenzyl)piperidin-4-yl]ethylcarbamate] reads 112 to 114 °C; that for `CNC(=O)COC(=O)NCCC1CCN(Cc2cc(F)ccc2Cl)CC1` [Compound 22, 2-(methylamino)-2-oxoethyl 2-[1-(2-chloro-5-fluorobenzyl)piperidin-4-yl]ethylcarbamate], 102 to 104 °C.
In the case of `CNC(=O)COC(=O)NCCC1CCN(Cc2cc(F)cc(C#N)c2)CC1` [Compound 102, 2-(methylamino)-2-oxoethyl 2-[1-(3-cyano-5-fluorobenzyl)piperidin-4-yl]ethylcarbamate], the melting point is 132 to 134 °C.
In turn, `CNC(=O)COC(=O)NCC1CCN(CCc2ccc(F)cc2OC)CC1` [Compound 52] came in with a melting point of 126 to 128 °C.
Under `CNC(=O)COC(=O)NCCC1CCN(Cc2ccc(C(F)(F)F)cc2)CC1` [Compound 14, 2-(methylamino)-2-oxoethyl 2-(1-{[4-(trifluoromethyl)phenyl]methyl}piperidin-4-yl)ethylcarbamate] stands 116 to 120 °C; under `CNC(=O)COC(=O)NCCC1CCN(CCOc2ccc(Cl)cc2)CC1` [Compound 84, 2-(methylamino)-2-oxoethyl 2-(1-{2-[(4-chlorophenyl)oxy]ethyl}piperidin-4-yl)ethylcarbamate], 109 to 113 °C.
The result for `CNC(=O)COC(=O)NCCC1CCN(Cc2ccc(Br)cc2)CC1` [Compound 12, 2-(methylamino)-2-oxoethyl 2-{1-[(4-bromophenyl)methyl]piperidin-4-yl}ethylcarbamate] reads 107 to 111 °C.
The result for `CNC(=O)COC(=O)NCCC1CCN(Cc2nc(-c3ccc(C(F)(F)F)cc3)cs2)CC1` [Compound 106, 2-(methylamino)-2-oxoethyl 2-[1-({4-[4-(trifluoromethyl)phenyl]-1,3-thiazol-2-yl}methyl)piperidin-4-yl]ethylcarbamate] reads 161 to 163 °C; that for `CNC(=O)COC(=O)NCCC1CCN(Cc2ccc(Oc3ccc(Cl)c(F)c3)cc2)CC1` [Compound 28, 2-(methylamino)-2-oxoethyl 2-{1-[4-(4-chloro-3-fluorophenoxy)benzyl]piperidin-4-yl}ethylcarbamate], 109 to 111 °C; that for `CNC(=O)COC(=O)NCCC1CCN(Cc2ccc(Cl)cc2Cl)CC1` [Compound 18, 2-(methylamino)-2-oxoethyl 2-[1-(2,4-dichlorobenzyl)piperidin-4-yl]ethylcarbamate], 117 to 119 °C.
As for `CNC(=O)COC(=O)NCCC1CCN(Cc2cccc(Oc3ccc(F)cc3)c2)CC1` [Compound 103, 2-(methylamino)-2-oxoethyl 2-{1-[3-(4-fluorophenoxy)benzyl]piperidin-4-yl}ethylcarbamate], the melting point was in the range of 79 to 81 °C.
As to `CCOc1ccc(CCN2CCC(CCNC(=O)OCC(=O)NC)CC2)cc1` [Compound 59, 2-(methylamino)-2-oxoethyl 2-(1-{2-[4-(ethyloxy)phenyl]ethyl}piperidin-4-yl)ethylcarbamate], the melting point was 118 to 120 °C.
Under `CNC(=O)COC(=O)NCCC1CCN(Cc2ccc(F)cc2Cl)CC1` [Compound 100, 2-(methylamino)-2-oxoethyl 2-[1-(2-chloro-4-fluorobenzyl)piperidin-4-yl]ethylcarbamate] stands 108 to 110 °C.
The result for `CNC(=O)COC(=O)NCCC1CCN(Cc2cc(-c3ccc(Cl)cc3)no2)CC1` [Compound 104, 2-(methylamino)-2-oxoethyl 2-(1-{[3-(4-chlorophenyl)isoxazol-5-yl]methyl}piperidin-4-yl)ethylcarbamate] reads 169 to 171 °C; that for `CNC(=O)COC(=O)NCCC1CCN(Cc2ccc(-c3ccc(F)cc3)cc2Cl)CC1` [Compound 27, 2-(methylamino)-2-oxoethyl 2-{1-[(3-chloro-4′-fluorobiphenyl-4-yl)methyl]piperidin-4-yl}ethylcarbamate], 98 to 102 °C; that for `CNC(=O)COC(=O)NCCC1CCN(Cc2cccc(Cl)c2F)CC1` [Compound 23, 2-(methylamino)-2-oxoethyl 2-[1-(3-chloro-2-fluorobenzyl)piperidin-4-yl]ethylcarbamate], 104 to 106 °C.
Turning to `CNC(=O)COC(=O)NCCC1CCN(CCc2ccccc2Cl)CC1` (as salt: HCl) [Compound 57, 2-(methylamino)-2-oxoethyl 2-{1-[2-(2-chlorophenyl)ethyl]piperidin-4-yl}ethylcarbamate], the melting point was in the range of 121 to 123 °C.
Under `CNC(=O)COC(=O)NCCC1CCN(Cc2cccc(C(F)(F)F)c2)CC1` [Compound 13, 2-(methylamino)-2-oxoethyl 2-(1-{[3-(trifluoromethyl)phenyl]methyl}piperidin-4-yl)ethylcarbamate] stands 90 to 92 °C.
Under `CNC(=O)COC(=O)NCCC1CCN(Cc2cc(C)cc(Cl)c2)CC1` [Compound 24, 2-(methylamino)-2-oxoethyl 2-[1-(3-chloro-5-methylbenzyl)piperidin-4-yl]ethylcarbamate] stands 79 to 81 °C; under `CNC(=O)COC(=O)NCCC1CCN(Cc2cccc(Cl)c2Cl)CC1` [Compound 17, 2-(methylamino)-2-oxoethyl 2-{1-[(2,3-dichlorophenyl)methyl]piperidin-4-yl}ethylcarbamate], 114 to 116 °C.
The result for `CNC(=O)COC(=O)NCCC1CCN(CCOc2ccc(F)cc2)CC1` [Compound 83, 2-(methylamino)-2-oxoethyl 2-(1-{2-[(4-fluorophenyl)oxy]ethyl}piperidin-4-yl)ethylcarbamate] reads 125 to 129 °C; that for `CNC(=O)COC(=O)NCCC1CCN(Cc2ccccn2)CC1` [Compound 31, 2-(methylamino)-2-oxoethyl 2-[1-(pyridin-2-ylmethyl)piperidin-4-yl]ethylcarbamate], 104 to 106 °C.
